Molecular target: T1, hTRPV1 (Homo sapiens, UniProt Q8NER1)
T1 construct: expressed in transfected cells; host or cells: HEK293
Assay: Human TRPV1 (hTRPV1) functional assay, FLIPR intracellular Ca2+, capsaicin challenge
Assay type: cell-based
Conditions: HEK293 cells expressing hTRPV1, capsaicin 0.030 μM challenge; for IC50: derived from a variety of test concentrations, read-out: IC50 value (symbol c); for inhibition at 0.2 µM: test concentration of 0.2 μm, read-out: percent inhibition (symbol b); for inhibition at 0.5 µM: test concentration of 0.5 μm, read-out: percent inhibition (symbol a)
Method: The functional activity of the test compounds was determined by measuring changes in intracellular calcium concentration using a Ca^++-sensitive fluorescent dye and FLIPR™ technology. Increases in Ca^++ concentration were readily detected upon challenge with capsaicin.
HEK293 cells expressing hTRPV1 were grown on poly-D-lysine coated 384 well black-walled plates (BD 354663) and 1 day later loaded with Calcium 3 Dye for 35 min at 37° C., 5% CO2 and then for 25 min at room temperature, and subsequently tested for agonist-induced increases in intracellular Ca^2+ levels using FLIPR™ technology. Cells were challenged with test compounds (at varying concentrations) and intracellular Ca^2+ was measured for 5 min prior to the addition of capsaicin to all wells to achieve a final concentration of 0.030 μM eliciting ˜80% maximal response.
EC50 or IC50 values were determined from concentration-response studies, which were generated using the average of quadruplicate wells for each data point. The symbol “a” represents percent inhibition obtained at a test concentration of 0.5 μm; the symbol “b” represents percent inhibition obtained at a test concentration of 0.2 μm; the symbol “c” represents an IC50 value (nM) derived from a variety of test concentrations. The term “NA” means that the result is not applicable for a particular compound.

T1 sequence (Q8NER1 whole entry): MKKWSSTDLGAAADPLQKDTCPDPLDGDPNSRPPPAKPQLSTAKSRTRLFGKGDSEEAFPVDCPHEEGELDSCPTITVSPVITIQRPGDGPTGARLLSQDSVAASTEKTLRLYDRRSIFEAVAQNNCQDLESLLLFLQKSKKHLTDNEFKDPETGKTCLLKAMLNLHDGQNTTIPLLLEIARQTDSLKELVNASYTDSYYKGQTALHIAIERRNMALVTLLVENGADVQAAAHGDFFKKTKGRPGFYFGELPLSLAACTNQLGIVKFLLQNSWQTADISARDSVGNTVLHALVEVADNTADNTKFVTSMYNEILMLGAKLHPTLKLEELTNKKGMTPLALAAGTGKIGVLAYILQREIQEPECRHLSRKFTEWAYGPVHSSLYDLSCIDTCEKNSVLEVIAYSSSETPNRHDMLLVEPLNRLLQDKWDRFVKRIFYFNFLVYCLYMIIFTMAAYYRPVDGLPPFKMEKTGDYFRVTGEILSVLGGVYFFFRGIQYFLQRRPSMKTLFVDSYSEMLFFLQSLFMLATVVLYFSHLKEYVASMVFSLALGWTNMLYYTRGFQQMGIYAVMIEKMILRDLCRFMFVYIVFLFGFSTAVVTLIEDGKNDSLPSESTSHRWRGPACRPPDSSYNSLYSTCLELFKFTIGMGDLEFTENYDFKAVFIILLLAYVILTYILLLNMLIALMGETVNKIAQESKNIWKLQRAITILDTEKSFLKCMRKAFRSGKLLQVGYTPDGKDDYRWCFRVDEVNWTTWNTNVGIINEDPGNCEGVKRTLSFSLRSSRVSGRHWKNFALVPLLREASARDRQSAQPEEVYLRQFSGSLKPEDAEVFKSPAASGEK

Structure (SMILES): Cc1ccc(OCc2nc3cc(-c4ccccc4S(C)(=O)=O)ccc3[nH]2)cc1 [Cpd 76, 5-(2-methanesulfonyl-phenyl)-2-p-tolyloxymethyl-1H-benzoimidazole]
- IC50: 31 nM
- inhibition at 0.2 µM: 96%

Structure (SMILES): CC(C)c1ccc(OCc2nc3cc(-c4ccccc4S(C)(=O)=O)ccc3[nH]2)cc1 [Cpd 77, 2-(4-isopropyl-phenoxymethyl)-5-(2-methanesulfonyl-phenyl)-1H-benzoimidazole]
- IC50: 3 nM
- inhibition at 0.2 µM: 100%

Structure (SMILES): CC(C)(C)c1ccc(OCc2nc3cc(-c4ccccc4S(C)(=O)=O)ccc3[nH]2)cc1 [Cpd 78, 2-(4-tert-butyl-phenoxymethyl)-5-(2-methanesulfonyl-phenyl)-1H-benzoimidazole]
- IC50: 3 nM
- inhibition at 0.2 µM: 98%

Structure (SMILES): CC(=O)c1ccc(OCc2nc3cc(-c4ccccc4S(C)(=O)=O)ccc3[nH]2)cc1 [Cpd 79, 1-{4-[5-(2-methanesulfonyl-phenyl)-1H-benzoimidazol-2-ylmethoxy]-phenyl}-ethanone]
- inhibition at 0.2 µM: 61%

Structure (SMILES): CS(=O)(=O)c1ccccc1-c1ccc2[nH]c(COc3ccc4ccccc4c3)nc2c1 [Cpd 80, 5-(2-methanesulfonyl-phenyl)-2-(naphthalen-2-yloxymethyl)-1H-benzoimidazole]
- IC50: 14 nM
- inhibition at 0.2 µM: 99%

Structure (SMILES): CCOc1ccc(OCc2nc3cc(-c4ccccc4S(C)(=O)=O)ccc3[nH]2)cc1 [Cpd 81, 2-(4-ethoxy-phenoxymethyl)-5-(2-methanesulfonyl-phenyl)-1H-benzoimidazole]
- IC50: 85 nM
- inhibition at 0.2 µM: 96%

Structure (SMILES): CS(=O)(=O)c1ccccc1-c1ccc2[nH]c(COc3ccc(SC(F)(F)F)cc3)nc2c1 [Cpd 82, 5-(2-methanesulfonyl-phenyl)-2-(4-trifluoromethanesulfide-phenoxymethyl)-1H-benzoimidazole]
- IC50: 7 nM
- inhibition at 0.2 µM: 99%

Structure (SMILES): CS(=O)(=O)c1ccccc1-c1ccc2[nH]c(COc3ccc(C#N)cc3)nc2c1 [Cpd 83, 4-[5-(2-methanesulfonyl-phenyl)-1H-benzoimidazol-2-ylmethoxy]-benzonitrile]
- inhibition at 0.2 µM: 51%

Structure (SMILES): CS(=O)(=O)c1ccc(OCc2nc3cc(-c4ccccc4S(C)(=O)=O)ccc3[nH]2)cc1 [Cpd 85, 2-(4-methanesulfonyl-phenoxymethyl)-5-(2-methanesulfonyl-phenyl)-1H-benzoimidazole]
- inhibition at 0.2 µM: 12%

Structure (SMILES): CS(=O)(=O)c1ccccc1-c1ccc2[nH]c(COc3ccc4c(c3)CCCC4)nc2c1 [Cpd 87, 5-(2-methanesulfonyl-phenyl)-2-(5,6,7,8-tetrahydro-naphthalen-2-yloxymethyl)-1H-benzoimidazole]
- IC50: 14 nM
- inhibition at 0.2 µM: 96%

Structure (SMILES): COC(=O)CCc1ccc(OCc2nc3cc(-c4ccccc4S(C)(=O)=O)ccc3[nH]2)cc1 [Cpd 88, 3-{4-[5-(2-methanesulfonyl-phenyl)-1H-benzoimidazol-2-ylmethoxy]-phenyl}-propionic acid methyl ester]
- inhibition at 0.2 µM: 36%

Structure (SMILES): Cc1ccc(OCc2nc3cc(-c4ccccc4S(C)(=O)=O)ccc3[nH]2)c(C)c1 [Cpd 89, 2-(2,4-dimethyl-phenoxymethyl)-5-(2-methanesulfonyl-phenyl)-1H-benzoimidazole]
- IC50: 52 nM
- inhibition at 0.2 µM: 90%

Structure (SMILES): Cc1cc(C)cc(OCc2nc3cc(-c4ccccc4S(C)(=O)=O)ccc3[nH]2)c1 [Cpd 90, 2-(3,5-dimethyl-phenoxymethyl)-5-(2-methanesulfonyl-phenyl)-1H-benzoimidazole]
- inhibition at 0.2 µM: 31%

Structure (SMILES): CS(=O)(=O)c1ccccc1-c1ccc2[nH]c(COc3ccc4c(c3)CCC4)nc2c1 [Cpd 91, 2-(indan-5-yloxymethyl)-5-(2-methanesulfonyl-phenyl)-1H-benzoimidazole]
- IC50: 21 nM
- inhibition at 0.2 µM: 99%

Structure (SMILES): CS(=O)(=O)c1ccccc1-c1ccc2[nH]c(COc3ccc4c(c3)OCO4)nc2c1 [Cpd 92, 2-(benzo[1,3]dioxol-5-yloxymethyl)-5-(2-methanesulfonyl-phenyl)-1H-benzoimidazole]
- IC50: 86 nM
- inhibition at 0.2 µM: 76%

Structure (SMILES): CS(=O)(=O)c1ccccc1-c1ccc2[nH]c(COc3cc(Cl)cc(Cl)c3)nc2c1 [Cpd 93, 2-(3,5-dichloro-phenoxymethyl)-5-(2-methanesulfonyl-phenyl)-1H-benzoimidazole]
- inhibition at 0.2 µM: 11%

Structure (SMILES): CC(=O)Nc1cccc(OCc2nc3cc(-c4ccccc4S(C)(=O)=O)ccc3[nH]2)c1 [Cpd 94, N-{3-[5-(2-methanesulfonyl-phenyl)-1H-benzoimidazol-2-ylmethoxy]-phenyl}-acetamide]
- inhibition at 0.2 µM: 1%

Structure (SMILES): CC(=O)Nc1ccc(OCc2nc3cc(-c4ccccc4S(C)(=O)=O)ccc3[nH]2)cc1 [Cpd 95, N-{4-[5-(2-methanesulfonyl-phenyl)-1H-benzoimidazol-2-ylmethoxy]-phenyl}-acetamide]
- inhibition at 0.2 µM: 1%

Structure (SMILES): COc1ccc(OCc2nc3cc(-c4ccccc4S(C)(=O)=O)ccc3[nH]2)cc1 [Cpd 96, 5-(2-methanesulfonyl-phenyl)-2-(4-methoxy-phenoxymethyl)-1H-benzoimidazole]
- inhibition at 0.2 µM: 6%

Structure (SMILES): COc1cccc(OCc2nc3cc(-c4ccccc4S(C)(=O)=O)ccc3[nH]2)c1 [Cpd 97, 5-(2-methanesulfonyl-phenyl)-2-(3-methoxy-phenoxymethyl)-1H-benzoimidazole]
- inhibition at 0.2 µM: 42%

Structure (SMILES): CS(=O)(=O)c1cccc(-c2ccc3[nH]c(COc4ccc(C(F)(F)F)cc4)nc3c2)c1 [Cpd 99, 5-(3-methanesulfonyl-phenyl)-2-(4-trifluoromethyl-phenoxymethyl)-1H-benzoimidazole]
- inhibition at 0.5 µM: 14%

Structure (SMILES): CS(=O)(=O)c1ccc(-c2ccc3[nH]c(COc4ccc(C(F)(F)F)cc4)nc3c2)cc1 [Cpd 100, 5-(4-methanesulfonyl-phenyl)-2-(4-trifluoromethyl-phenoxymethyl)-1H-benzoimidazole]
- inhibition at 0.5 µM: 13%

Structure (SMILES): CS(=O)(=O)Nc1cccc(-c2ccc3[nH]c(COc4ccc(C(F)(F)F)cc4)nc3c2)c1 [Cpd 102, N-{3-[2-(4-trifluoromethyl-phenoxymethyl)-1H-benzoimidazol-5-yl]-phenyl}-methanesulfonamide]
- inhibition at 0.5 µM: 8%

Structure (SMILES): CS(=O)(=O)Nc1ccc(-c2ccc3[nH]c(COc4ccc(C(F)(F)F)cc4)nc3c2)cc1 [Cpd 103, N-{4-[2-(4-trifluoromethyl-phenoxymethyl)-1H-benzoimidazol-5-yl]-phenyl}-methanesulfonamide]
- inhibition at 0.5 µM: 7%

Structure (SMILES): NS(=O)(=O)c1cccc(-c2ccc3[nH]c(COc4ccc(C(F)(F)F)cc4)nc3c2)c1 [Cpd 104, 3-[2-(4-trifluoromethyl-phenoxymethyl)-1H-benzoimidazol-5-yl]-benzenesulfonamide]
- inhibition at 0.5 µM: 8%

Structure (SMILES): NS(=O)(=O)c1ccc(-c2ccc3[nH]c(COc4ccc(C(F)(F)F)cc4)nc3c2)cc1 [Cpd 105, 4-[2-(4-trifluoromethyl-phenoxymethyl)-1H-benzoimidazol-5-yl]-benzenesulfonamide]
- inhibition at 0.5 µM: 7%

Structure (SMILES): CN(C)S(=O)(=O)c1ccccc1-c1ccc2[nH]c(COc3ccc(C(F)(F)F)cc3)nc2c1 [Cpd 106, N,N-dimethyl-2-[2-(4-trifluoromethyl-phenoxymethyl)-1H-benzoimidazol-5-yl]-benzenesulfonamide]
- IC50: 3 nM
- inhibition at 0.5 µM: 94%

Structure (SMILES): Cc1ccccc1-c1ccc2[nH]c(COc3ccc(C(F)(F)F)cc3)nc2c1 [Cpd 107, 5-o-tolyl-2-(4-trifluoromethyl-phenoxymethyl)-1H-benzoimidazole]
- inhibition at 0.5 µM: 16%

Structure (SMILES): Cc1cccc(-c2ccc3[nH]c(COc4ccc(C(F)(F)F)cc4)nc3c2)c1 [Cpd 108, 5-m-tolyl-2-(4-trifluoromethyl-phenoxymethyl)-1H-benzoimidazole]
- inhibition at 0.5 µM: 10%

Structure (SMILES): Cc1ccc(-c2ccc3[nH]c(COc4ccc(C(F)(F)F)cc4)nc3c2)cc1 [Cpd 109, 5-p-tolyl-2-(4-trifluoromethyl-phenoxymethyl)-1H-benzoimidazole]
- inhibition at 0.5 µM: 3%

Structure (SMILES): CC(O)c1ccccc1-c1ccc2[nH]c(COc3ccc(C(F)(F)F)cc3)nc2c1 (centres unmarked) [Cpd 110, 1-{2-[2-(4-trifluoromethyl-phenoxymethyl)-1H-benzoimidazol-5-yl]-phenyl}-ethanol]
- IC50: 58 nM
- inhibition at 0.5 µM: 98%

Structure (SMILES): CC(O)c1cccc(-c2ccc3[nH]c(COc4ccc(C(F)(F)F)cc4)nc3c2)c1 (centres unmarked) [Cpd 111, 1-{3-[2-(4-trifluoromethyl-phenoxymethyl)-1H-benzoimidazol-5-yl]-phenyl}-ethanol]
- inhibition at 0.5 µM: 18%

Structure (SMILES): CC(O)c1ccc(-c2ccc3[nH]c(COc4ccc(C(F)(F)F)cc4)nc3c2)cc1 (centres unmarked) [Cpd 112, 1-{4-[2-(4-trifluoromethyl-phenoxymethyl)-1H-benzoimidazol-5-yl]-phenyl}-ethanol]
- inhibition at 0.5 µM: 1%

Structure (SMILES): CC(=O)Nc1ccccc1-c1ccc2[nH]c(COc3ccc(C(F)(F)F)cc3)nc2c1 [Cpd 113, N-{2-[2-(4-trifluoromethyl-phenoxymethyl)-1H-benzoimidazol-5-yl]-phenyl}-acetamide]
- inhibition at 0.5 µM: 42%

Structure (SMILES): CC(=O)Nc1cccc(-c2ccc3[nH]c(COc4ccc(C(F)(F)F)cc4)nc3c2)c1 [Cpd 114, N-{3-[2-(4-trifluoromethyl-phenoxymethyl)-1H-benzoimidazol-5-yl]-phenyl}-acetamide]
- inhibition at 0.5 µM: 6%
